In patent US20150366847A1, “COMBINATION OF GERANYLGERANYLACETONE AND IBUDILAST AND METHODS OF USING SAME” (MediciNova, Inc., priority 2014, published 2015):

What was measured:
[1] = tested on: heat shock protein 70 (HSP70); conditions: mice subjected to an occlusion of the middle cerebral artery; cited from earlier work
animal model for ALS = assay: Rat model of ALS, brain mass; assay type: in vivo
[2] = tested on: animal model for Parkinson's disease; assay: Rat model of Parkinson's disease, brain mass; assay type: in vivo

| SMILES | induction of heat shock protein 70 (HSP70) [1] | brain mass (animal model for ALS) | brain mass [2] |
| --- | --- | --- | --- |
| CC(=O)CCC=C(C)CC/C=C(\C)CC/C=C(\C)CCC=C(C)C (mixture of isomers) [GGA, Geranylgeranyl acetone] | inducer of heat shock protein 70 (HSP70) |  |  |
| CC(C)C(=O)c1c(C(C)C)nn2ccccc12 [ibudilast, 3-isobutyryl-2-isopropylpyrazolo[1,5-a]pyridine] |  | increase brain mass | increase brain mass |
